Measured values from patent US12077503B2, “Substituted cyclic amides and their use as herbicides” (FMC CORPORATION, priority 2015, dated 2024).

What was measured:
Type in all cases: in vivo
[1] = system: ryegrass, Italian (Italian ryegrass, Lolium multiflorum); assay: Test A preemergence; settings: Lolium multiflorum, pre-emergence, 240 h, 0 to 100 scale where 0 is no effect and 100 is complete control, read-out: Ryegrass, Italian plant response rating
Method in brief: (§1)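 Treatment is preemergence as a directed soil spray after planting, or postemergence at the one- to two-leaf stage, with test chemical in a non-phytotoxic solvent mixture plus surfactant. Plants stay in the greenhouse about 10 d before visual injury scoring on a 0 to 100 scale versus untreated controls.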

[2] = system: pigweed (Amaranthus retroflexus); assay: Test A preemergence; settings: Amaranthus retroflexus, pre-emergence, 240 h, 0 to 100 scale where 0 is no effect and 100 is complete control, read-out: Pigweed plant response rating
[3] = system: ragweed (common ragweed, Ambrosia elatior); assay: Test A preemergence; settings: Ambrosia artemisiifolia, pre-emergence, 240 h, 0 to 100 scale where 0 is no effect and 100 is complete control, read-out: Ragweed plant response rating
Method in brief: as §1

[4] = system: giant foxtail (Setaria faberii); assay: Test A preemergence; settings: Setaria faberi, pre-emergence, 240 h, 0 to 100 scale where 0 is no effect and 100 is complete control, read-out: Foxtail, Giant plant response rating
Method in brief: as §1

Kochia (Kochia scoparia) [5] = assay: Test A preemergence; settings: Bassia scoparia, pre-emergence, 240 h, 0 to 100 scale where 0 is no effect and 100 is complete control, read-out: Kochia plant response rating
Method in brief: as §1

[6] = system: barnyardgrass (Echinochloa crus-galli); assay: Test A preemergence; settings: Echinochloa crus-galli, pre-emergence, 240 h, 0 to 100 scale where 0 is no effect and 100 is complete control, read-out: Barnyardgrass plant response rating
Method in brief: as §1

[7] = system: ryegrass, Italian (Italian ryegrass, Lolium multiflorum); assay: Test A postemergence; settings: Lolium multiflorum, post-emergence, 240 h, read-out: Ryegrass, Italian plant response rating (0 to 100 scale)
Method in brief: as §1

[8] = system: pigweed (Amaranthus retroflexus); assay: Test A postemergence; settings: Amaranthus retroflexus, post-emergence, 240 h, read-out: Pigweed plant response rating (0 to 100 scale)
Method in brief: as §1

[9] = system: ragweed (common ragweed, Ambrosia elatior); assay: Test A postemergence; settings: Ambrosia artemisiifolia, post-emergence, 240 h, read-out: Ragweed plant response rating (0 to 100 scale)
Method in brief: as §1

[10] = system: giant foxtail (Setaria faberii); assay: Test A postemergence; settings: Setaria faberi, post-emergence, 240 h, read-out: Foxtail, Giant plant response rating (0 to 100 scale)
Method in brief: as §1

corn (Zea mays) = assay: Test A postemergence; settings: Zea mays, post-emergence, 240 h, read-out: Corn plant response rating (0 to 100 scale)
Method in brief: as §1

[11] = system: Galium (catchweed bedstraw, Galium aparine); assay: Test A postemergence; settings: Galium, post-emergence, 240 h, read-out: Galium plant response rating (0 to 100 scale)
Method in brief: as §1

Kochia (Kochia scoparia) [12] = assay: Test A postemergence; settings: Bassia scoparia, post-emergence, 240 h, read-out: Kochia plant response rating (0 to 100 scale)
Method in brief: as §1

[13] = system: barnyardgrass (Echinochloa crus-galli); assay: Test A postemergence; settings: Echinochloa crus-galli, post-emergence, 240 h, read-out: Barnyardgrass plant response rating (0 to 100 scale)
Method in brief: as §1

[14] = system: wheat (Triticum aestivum); assay: Test A postemergence; settings: Triticum aestivum, post-emergence, 240 h, Postemergence, 31 g ai/ha; 0 is no effect, 100 is complete control; read-out: Wheat plant response rating (0 to 100 scale)
Method in brief: as §1

[15] = system: blackgrass (Alopecurus myosuroides); assay: Test A postemergence; settings: Alopecurus myosuroides, post-emergence, 240 h, read-out: Blackgrass plant response rating (0 to 100 scale)
Method in brief: as §1

[16] = system: ducksalad (Heteranthera limosa); assay: Test B flooded paddy test; settings: Heteranthera limosa, 250 g ai/ha, Flood; 0 to 100 scale where 0 is no effect and 100 is complete control; read-out: Ducksalad plant response rating
Method in brief: (§2)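 Response scored visually against untreated controls, 0 = no effect and 100 = complete control, 13–15 d after treatment in the greenhouse. Compounds added to paddy water held 3 cm above soil surface. Treatment given at 2-leaf stage.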

rice (Oryra sativa) = assay: Test B flooded paddy test; settings: Oryza sativa, 250 g ai/ha, Flood; 0 to 100 scale where 0 is no effect and 100 is complete control; read-out: Rice plant response rating
Method in brief: as §2

[17] = system: barnyardgrass (Echinochloa crus-galli); assay: Test B flooded paddy test; settings: Echinochloa crus-galli, 250 g ai/ha, Flood; 0 to 100 scale where 0 is no effect and 100 is complete control; read-out: Barnyardgrass plant response rating
Method in brief: as §2

[18] = system: sedge, umbrella (small-flower umbrella sedge, Cyperus difformis); assay: Test B flooded paddy test; settings: Cyperus difformis, 250 g ai/ha, Flood; 0 to 100 scale where 0 is no effect and 100 is complete control; read-out: Sedge, Umbrella plant response rating
Method in brief: as §2

[19] = 125 g ai/ha, preemergence, visual injury rating, approximately 10 d
[20] = 125 g ai/ha, postemergence, visual injury vs untreated controls after approx. 10 d, 0 = no effect, 100 = complete control
[21] = Postemergence, 31 g ai/ha, 0 is no effect, 100 is complete control

Structure (SMILES): CN1C[C@H](c2ccc(Cl)c(F)c2)[C@@H](C(=O)Nc2cccc(F)c2F)C1=O [Compound 1265]
- pest or weed control at 31 g/ha ([1]; 31 g ai/ha, Preemergence): 50%
- pest or weed control at 125 g/ha [1, 19]: 60%
- pest or weed control at 31 g/ha ([2]; 31 g ai/ha, Preemergence): 0%
- pest or weed control at 125 g/ha [2, 19]: 80%
- pest or weed control at 31 g/ha ([3]; 31 g ai/ha, Preemergence): 0%
- pest or weed control at 125 g/ha [3, 19]: 0%
- pest or weed control at 31 g/ha ([4]; 31 g ai/ha, Preemergence): 90%
- pest or weed control at 125 g/ha [4, 19]: 90%
- pest or weed control at 31 g/ha (Kochia (Kochia scoparia) [5]; 31 g ai/ha, Preemergence): 30%
- pest or weed control at 125 g/ha (Kochia (Kochia scoparia) [5]; [19]): 70%
- pest or weed control at 31 g/ha ([6]; 31 g ai/ha, Preemergence): 80%
- pest or weed control at 125 g/ha [6, 19]: 90%
- pest or weed control at 125 g/ha [7, 20]: 30%
- pest or weed control at 31 g/ha [7, 21]: 0%
- pest or weed control at 125 g/ha [8, 20]: 70%
- pest or weed control at 31 g/ha [8, 21]: 30%
- pest or weed control at 125 g/ha [9, 20]: 30%
- pest or weed control at 31 g/ha [9, 21]: 0%
- pest or weed control at 125 g/ha [10, 20]: 80%
- pest or weed control at 31 g/ha [10, 21]: 80%
- plant injury at 125 g/ha (corn (Zea mays); [20]): 70%
- plant injury at 31 g/ha (corn (Zea mays); [21]): 30%
- pest or weed control at 125 g/ha [11, 20]: 60%
- pest or weed control at 31 g/ha [11, 21]: 60%
- pest or weed control at 125 g/ha (Kochia (Kochia scoparia) [12]; [20]): 70%
- pest or weed control at 31 g/ha (Kochia (Kochia scoparia) [12]; [21]): 50%
- pest or weed control at 125 g/ha [13, 20]: 90%
- pest or weed control at 31 g/ha [13, 21]: 80%
- plant injury at 31 g/ha [14]: 0%
- pest or weed control at 125 g/ha [15, 20]: 50%
- pest or weed control at 31 g/ha [15, 21]: 0%
- pest or weed control at 250 g/ha [16]: 90%
- pest or weed control at 250 g/ha (rice (Oryra sativa)): 45%
- pest or weed control at 250 g/ha [17]: 60%
- pest or weed control at 250 g/ha [18]: 0%
